Data taken from EP1017810B1, “AGONIST AND ANTAGONIST PEPTIDES OF CARCINOEMBRYONIC ANTIGEN (CEA)” (THE GOVERNMENT OF THE UNITED STATES OF AMERICA, as …, priority 1997, dated 2004).
Where no end group is shown, it is not given here.

The compounds below were run on CEA CTL T-Vac8 (assay: initial screening cytotoxicity assay, 111In release from peptide-incubated C1R-A2 cells with T-Vac8 CTL). Details: peptide at 1, 0.1 and 0.01 µg/ml, E:T=1.45:1, 4 hours.
Assay type: cell-based, human

Compound	activation of T-Vac8 cytotoxicity (lysis of peptide-incubated targets)
CC(C)C[C@H](NC(=O)[C@H](CC(N)=O)NC(=O)[C@H](CC(C)C)NC(=O)[C@H](CC(=O)O)NC(=O)[C@H](C)NC(=O)CNC(=O)[C@H](CO)NC(=O)[C@H](CC(C)C)NC(=O)[C@@H](N)Cc1ccc(O)cc1)C(=O)O [CAP1-6D]	equal to or better than CAP1
CC[C@H](C)[C@H](NC(=O)[C@H](CC(N)=O)NC(=O)[C@H](C)NC(=O)CNC(=O)[C@H](CO)NC(=O)[C@H](CC(C)C)NC(=O)[C@@H](N)Cc1ccc(O)cc1)C(=O)N[C@@H](CC(N)=O)C(=O)N[C@@H](CC(C)C)C(=O)O [CAP1-7I]	appeared to be active
YLSGACLNL [CAP1-6C]	equal to or better than CAP1
YLSGFNLNL [CAP1-5F]	provided stimulation, albeit at reduced levels compared to CAP1 itself
YLSGINLNL [CAP1-5I]	provided stimulation, albeit at reduced levels compared to CAP1 itself
YLSGSNLNL [CAP1-5S]	provided stimulation, albeit at reduced levels compared to CAP1 itself
